From PMC4300553, “A dynamically coupled allosteric network underlies binding cooperativity in Src kinase” (Nature Communications, 2015)
“Also recorded” adds a separate entry of the source. Like-named read-outs stand apart in the source and are kept apart here.

Columns and labels:
[1] = biological target: T1, Src kinase domain (Gallus gallus, UniProt P00523); experiment: Fluorescence anisotropy binding assay, substrate peptide to Src kinase domain (wild type); design: species or system chicken; settings: for cooperativity of peptide and AMP-PNP binding: Kd at various concentrations of AMP-PNP, 1 μM labelled peptide; for change of Kd of substrate peptide by AMP-PNP: increasing AMP-PNP concentration; for binding cooperativity of substrates and products (summary): ATP + substrate peptide, ADP + pRS1, Src kinase
T1 construct: chicken c-Src (residues 251–533); made in house
Description: After a 1-min equilibration, the increase in the fluorescence anisotropy of the fluorescently labelled ligand was recorded using a Fluoromax 4 (Horiba) and fitted against a quadratic binding equation in Kaleidagraph (Synergy Software) to yield the Kd. Error bars represent the s.e. of the mean of the independent runs.

[2] = biological target: T1, Src kinase domain; experiment: Kinase activity assay (continuous spectrophotometric), Src kinase domain; format: biochemical, chicken; settings: for Km: 25 nM Src kinase domain, mean ± s.e.m., triplicate
Description: (§3) Mutations were introduced into the chicken c-Src kinase domain by site-directed mutagenesis and verified by DNA sequencing.
(§4) For the continuous spectrophotometric assay[64], 12.5–800 μM ATP Src-optimal substrate peptide ([sequence])[34] was combined with 12.5–800 μM ATP. Concentrations of Src kinase domain used for these assays were 25 nM. The initial velocities were plotted and fit to the Michaelis–Menten equation in Kaleidagraph (Synergy Software) to determine Km.

[3] = biological target: T2, Hck kinase domain (Homo sapiens, UniProt P08631); experiment: Kinase activity assay, Hck kinase domain; format: biochemical; settings: increasing substrate-peptide (RS1) concentration; Fig. 3b
T2 construct: human Hck (residues 166–445); made in house
T2 sequence (P08631 247-526): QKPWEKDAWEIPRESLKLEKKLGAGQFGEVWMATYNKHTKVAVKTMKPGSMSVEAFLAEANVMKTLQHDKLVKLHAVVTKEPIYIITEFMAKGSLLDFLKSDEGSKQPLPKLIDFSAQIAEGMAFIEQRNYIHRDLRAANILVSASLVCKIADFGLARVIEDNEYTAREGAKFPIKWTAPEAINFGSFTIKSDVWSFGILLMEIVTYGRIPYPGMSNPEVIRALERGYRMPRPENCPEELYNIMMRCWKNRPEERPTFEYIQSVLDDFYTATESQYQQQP
Description: as §3, §4

[4] = biological target: T3, Abl kinase domain (Homo sapiens, UniProt P00519); experiment: Kinase activity assay, Abl kinase domain; format: biochemical; settings: increasing substrate-peptide (RS1) concentration; Fig. 3b
T3 construct: human c-Abl (residues 229–512); made in house
T3 sequence (P00519 229-512): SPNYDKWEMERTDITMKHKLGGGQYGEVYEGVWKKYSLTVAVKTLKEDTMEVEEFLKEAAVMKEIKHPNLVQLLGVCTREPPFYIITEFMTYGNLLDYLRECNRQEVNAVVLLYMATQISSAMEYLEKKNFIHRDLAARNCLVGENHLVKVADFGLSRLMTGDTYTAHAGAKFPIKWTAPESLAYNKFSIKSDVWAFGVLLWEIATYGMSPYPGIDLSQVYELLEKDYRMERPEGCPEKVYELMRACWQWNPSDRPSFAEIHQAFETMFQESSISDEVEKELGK
Description: as §3, §4

[5] = system: Src W260A; experiment: Kinase activity assay, Src W260A; format: biochemical, chicken; settings: W260A versus wild type
Description: as §3, §4

[6] = system: Src 3-domain construct; experiment: Cooperativity in Src three-domain construct (KM and KD); format: binding; settings: Supplementary Fig. 6
From the text: Domain Kinase. (A) The effect of ATP concentration on substrate KM for Src kinase domain and 3-domain construct. (B) The effect of ATP concentration on substrate KM for WT and T338I mutant Src 3-domain construct (C) The effect of peptide concentration on ATP KM for Src kinase domain and 3-domain construct. (D) The effect of substrate concentration on ATP KM for WT and T338I mutant Src 3-domain construct. (E) Dissociation constants Src kinase domain and 3-domain constructs at increasing AMP-PNP concentration. (F) Dissociation constants for WT and T338I mutant Src 3-domain construct. KM values were determined in a kinase activity assay. KD values for the substrate peptides were determined using fluorescence anisotropy at 1 µM labeled peptide. All experiments were performed in triplicate, and data represent mean values ± s.e.m.
(§1) (1 picture or pasted object on this page, not shown here)

[7] = system: Src D404N; experiment: Nucleotide binding to Src D404N; design: species or system chicken; settings: asparagine incapable of chelating Mg2+; Supplementary Fig. 10
Description: (§2) Thermodynamic binding parameters for the binding of nucleotides to the Src kinase domain were obtained through isothermal titration calorimetry as published. All experiments were run in a VP-ITC instrument (Microcal) at 25 °C. Proteins were exchanged into 20 mM Tris (pH 8.0), 250 mM NaCl, 10 mM MgCl2 on PD-10 buffer exchange columns (GE Life-science) and diluted to 50–100 μM. Nucleotide stocks (Sigma) were made in buffer to final concentrations between 1 and 3 mM. The heat of binding was measured over the injection of 295 μl of drug in 10-μl steps spaced 300 s apart. Data were fit to a one binding site model using the Origin software package (Microcal). Error bars represent the s.e. of the mean of three independent runs. Representative enthalpograms are shown in Supplementary Fig. 7.
Supplementary Figure 10. Mutations to the allosteric network produce biochemical phenotypes. (A) Location of residues involved in the allosteric network (colored beads). (B) Representative conformations of Src wt and D404N. As shown, Asn404 mimics protonated Asp404 by forming hydrogen bonds with Asp386, and affects the conformation of Arg388, Trp428, and other residues involved in the substrate binding. (C) The effects of D404N mutation to three key residue-residue interaction of the putative allosteric network. (D) Dissociation […]
substrate binding. […]

[8] = biological target: T338I mutant Src 3-domain construct (Gallus gallus, UniProt P00523, T338I); experiment: Km of ATP and substrate peptide, T338I mutant Src 3-domain construct; format: biochemical; settings: higher Km for ATP, lower Km for substrate peptide
[9] = system: Src T338I; settings: T338I versus wild type
[10] = system: Ser/Thr kinase PKA; settings: cited from earlier work
From the text: The putative allosteric network discussed above may manifest itself in the form of cooperativity between ATP and substrate binding. […] Higher concentrations of AMP-PNP, a non-hydrolysable ATP ana ...

[11] = biological target: T1, Src kinase domain; experiment: Isothermal titration calorimetry, nucleotide binding to Src kinase domain; design: species or system chicken; settings: for Kd: isothermal titration calorimetry, 25 °C, 20 mM Tris (pH 8.0), 250 mM NaCl, 10 mM MgCl2; for fold reduction of nucleotide Kd by phosphorylated peptide (pRs1): presence of pRs1
Description: as §2
Supplementary Figure 7. Isothermal Titration Calorimetry of Src Binding to AMP-PNP and
ADP (A) Sample titration curve for AMP-PNP binding to the Src kinase domain.(B) Sample
titration curve of ADP binding to the Src kinase domain. All experiments were run in a VP-ITC
instrument (Micro-cal) at 25 °C. Proteins were exchanged into 20 mM Tris (pH 8.0), 250 mM
NaCl, 10 mM MgCl2 on PD-10 buffer exchange columns (GE Life-science), and diluted to 50–
as §1

[12] = system: kinase; settings: high Mg2+ concentration; cited from earlier work
From the text: Mg^2+ ions accompany ATP and ADP binding in protein kinases, mediating interactions between phosphate groups and conserved Asp and Asn residues (Asp404 and Asn391 in Src). On the other hand, in some kinase-ADP co-crystal structures, Mg^2+ ions are missing. In such cases, the Asp residue of the DFG motif (Asp404 in Src) is almost certainly protonated to prevent negative charge repulsion from the ADP phosphate group only 3.2 Å away (for example, PDB entry 1JBP (ref. [16])).

[13] = 100 mM Tris, pH 8.0, 10 mM MgCl2, 25 °C

For AEEMIYGEFAKKK [Rs2], the “cooperativity of peptide and AMP-PNP binding” value [1, 13] was “negative cooperativity independent of their overall affinity”.
With “GIYWHHY [Rs3, short substrate peptide (GIYWHHY)]” the “cooperativity of peptide and AMP-PNP binding” value [1, 13] was “negative cooperativity independent of their overall affinity”.
For `CC[C@H](C)[C@H](NC(=O)[C@H](CCC(=O)O)NC(=O)[C@H](CCC(=O)O)NC(=O)[C@H](CCC(=O)O)NC(=O)[C@H](C)N)C(=O)N[C@@H](Cc1ccc(O)cc1)C(=O)NCC(=O)N[C@@H](CCC(=O)O)C(=O)N[C@@H](Cc1ccccc1)C(=O)N[C@@H](C)C(=O)N[C@@H](CCCCN)C(=O)N[C@@H](CCCCN)C(=O)N[C@@H](CCCCN)C(=O)O` [Rs1], the Kd [1] was 37 ± 7 µM, the Kd ([1]; 100 μM ADP, 1 μM fluorescein-labelled peptide, 100 mM Tris, pH 8.0, 10 mM MgCl2, 25 °C, mean ± s.e.m., triplicate, read-out: Kd of substrate peptide at 100 μM ADP) was 17 ± 4 µM and the Kd ([1]; 1,000 μM ADP, 1 μM fluorescein-labelled peptide, 100 mM Tris, pH 8.0, 10 mM MgCl2, 25 °C, mean ± s.e.m., triplicate, read-out: Kd of substrate peptide at 1,000 μM ADP) was 16 ± 2 µM. For the same molecule, the “change of Kd of substrate peptide by AMP-PNP” value ([1]; 1 μM fluorescein-labelled peptide, 100 mM Tris, pH 8.0, 10 mM MgCl2, 25 °C, listed as optimal substrate peptide for Src) was “increase the Kd up to fivefold” and the “change of Kd of substrate peptide by AMP-PNP” value ([1]; 1 μM fluorescein-labelled peptide, 100 mM Tris, pH 8.0, 10 mM MgCl2, 25 °C, listed as substrate peptide) was “increases the Kd of substrate peptide fivefold”.
In the case of `Nc1ncnc2c1ncn2[C@@H]1O[C@H](COP(=O)(O)OP(=O)(O)OP(=O)(O)O)[C@@H](O)[C@H]1O` [ATP], the “binding cooperativity of substrates and products (summary)” value [1] is reported as “negative cooperativity”, the “Mg2+ dependence of binding and cooperativity” value ([1]; presence vs absence of Mg2+, ionic strength adjusted to 40 mM with NaCl, Supplementary Fig. 9) is reported as “disrupts ATP binding; also recorded: requires the presence of Mg^2+” and the Km ([2]; 50 μM substrate peptide, read-out: Km for ATP at 50 μM substrate peptide) is reported as 54 ± 22 µM. For the same molecule, the Km ([2]; 800 μM substrate peptide, read-out: Km for ATP at 800 μM substrate peptide) was 202 ± 21 µM, the “ATP Km versus substrate-peptide concentration, Src” value ([2]; increasing substrate-peptide (RS1) concentration, Fig. 3b) was “increases with increasing substrate-peptide concentration” and the “ATP Km versus substrate-peptide concentration, Hck” value [3] was “increases with increasing substrate-peptide concentration”. For the same molecule, the “ATP Km versus substrate-peptide concentration, Abl” value [4] was “increases with increasing substrate-peptide concentration”, the “Km of W260A for ATP relative to wild type” value [5] was “two- to fivefold lower” and the “cooperativity of ATP and substrate binding, three-domain construct” value [6] was “negative cooperativity is present”. For the same molecule, the “ATP binding to Src D404N” value [7] was “does not bind ATP favourably”, the “Km of T338I three-domain Src relative to wild type” value [8] was “This relationship holds for three-domain Src” and the “Km of T338I for ATP relative to wild type” value [9] was “twofold higher”. For the same molecule, the “cooperativity between ATP and substrate binding, PKA” value [10] was “positive cooperativity”.
In the case of `Nc1ncnc2c1ncn2[C@@H]1O[C@H](COP(=O)(O)OP(=O)(O)NP(=O)(O)O)[C@@H](O)[C@H]1O` [AMP-PNP], the Kd [11] is reported as 45 to 100 µM and the “fold reduction of nucleotide Kd by phosphorylated peptide (pRs1)” value [11] is reported as “three”.
In the case of `Nc1ncnc2c1ncn2[C@@H]1O[C@H](COP(=O)(O)OP(=O)(O)O)[C@@H](O)[C@H]1O` [ADP], the “binding cooperativity of substrates and products (summary)” value [1] is reported as “positive cooperativity”, the Kd [11] is reported as 45 to 100 µM and the “fold reduction of nucleotide Kd by phosphorylated peptide (pRs1)” value [11] is reported as “twofold”. For the same molecule, the “ADP release in kinase catalytic cycle” value [12] was “slower at high Mg^2+ concentration”.
